According to ChEMBL document CHEMBL1201862, “PubChem BioAssay data set” (2004):
The source made the active and inactive calls.

How the values were obtained:
Format in all cases: functional
[1] = molecular target: T1, Sentrin-specific protease 7 (Homo sapiens, UniProt Q9BQF6);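 also: Luminescence-based dose-response confirmation of ultra-high-throughput screening hits, measuring inhibition of SENP7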
T1 sequence (Q9BQF6 whole entry): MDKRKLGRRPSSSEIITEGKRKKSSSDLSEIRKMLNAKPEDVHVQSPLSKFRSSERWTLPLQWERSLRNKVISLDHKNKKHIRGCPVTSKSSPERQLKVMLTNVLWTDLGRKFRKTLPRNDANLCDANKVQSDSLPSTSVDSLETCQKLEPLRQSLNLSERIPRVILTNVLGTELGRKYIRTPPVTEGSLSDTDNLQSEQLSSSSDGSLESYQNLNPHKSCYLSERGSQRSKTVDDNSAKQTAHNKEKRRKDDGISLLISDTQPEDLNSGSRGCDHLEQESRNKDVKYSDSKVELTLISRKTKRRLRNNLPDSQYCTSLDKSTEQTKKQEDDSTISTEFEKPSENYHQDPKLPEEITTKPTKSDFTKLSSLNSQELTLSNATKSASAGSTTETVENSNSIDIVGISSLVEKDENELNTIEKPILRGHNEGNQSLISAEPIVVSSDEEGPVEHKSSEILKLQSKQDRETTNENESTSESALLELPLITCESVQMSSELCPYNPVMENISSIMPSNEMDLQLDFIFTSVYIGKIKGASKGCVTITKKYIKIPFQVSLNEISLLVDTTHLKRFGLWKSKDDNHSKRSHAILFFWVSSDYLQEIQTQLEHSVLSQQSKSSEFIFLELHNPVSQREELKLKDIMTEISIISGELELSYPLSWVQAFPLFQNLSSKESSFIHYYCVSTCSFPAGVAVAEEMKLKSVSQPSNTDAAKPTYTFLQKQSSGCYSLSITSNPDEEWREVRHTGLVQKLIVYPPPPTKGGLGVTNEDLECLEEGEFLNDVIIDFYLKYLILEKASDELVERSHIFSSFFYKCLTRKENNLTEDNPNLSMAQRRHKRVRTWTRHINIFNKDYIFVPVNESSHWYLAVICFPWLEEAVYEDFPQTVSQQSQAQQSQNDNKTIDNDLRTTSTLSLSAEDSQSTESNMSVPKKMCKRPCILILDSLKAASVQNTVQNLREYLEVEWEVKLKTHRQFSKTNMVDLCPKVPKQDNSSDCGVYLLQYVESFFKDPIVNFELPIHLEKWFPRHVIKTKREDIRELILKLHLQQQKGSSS

[2] = molecular target: T2, Sentrin-specific protease 6 (Homo sapiens, UniProt Q9GZR1);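 also: Luminescence-based dose-response confirmatory assay of SENP6 inhibition, following up an ultra-high-throughput screen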
T2 sequence (Q9GZR1 whole entry): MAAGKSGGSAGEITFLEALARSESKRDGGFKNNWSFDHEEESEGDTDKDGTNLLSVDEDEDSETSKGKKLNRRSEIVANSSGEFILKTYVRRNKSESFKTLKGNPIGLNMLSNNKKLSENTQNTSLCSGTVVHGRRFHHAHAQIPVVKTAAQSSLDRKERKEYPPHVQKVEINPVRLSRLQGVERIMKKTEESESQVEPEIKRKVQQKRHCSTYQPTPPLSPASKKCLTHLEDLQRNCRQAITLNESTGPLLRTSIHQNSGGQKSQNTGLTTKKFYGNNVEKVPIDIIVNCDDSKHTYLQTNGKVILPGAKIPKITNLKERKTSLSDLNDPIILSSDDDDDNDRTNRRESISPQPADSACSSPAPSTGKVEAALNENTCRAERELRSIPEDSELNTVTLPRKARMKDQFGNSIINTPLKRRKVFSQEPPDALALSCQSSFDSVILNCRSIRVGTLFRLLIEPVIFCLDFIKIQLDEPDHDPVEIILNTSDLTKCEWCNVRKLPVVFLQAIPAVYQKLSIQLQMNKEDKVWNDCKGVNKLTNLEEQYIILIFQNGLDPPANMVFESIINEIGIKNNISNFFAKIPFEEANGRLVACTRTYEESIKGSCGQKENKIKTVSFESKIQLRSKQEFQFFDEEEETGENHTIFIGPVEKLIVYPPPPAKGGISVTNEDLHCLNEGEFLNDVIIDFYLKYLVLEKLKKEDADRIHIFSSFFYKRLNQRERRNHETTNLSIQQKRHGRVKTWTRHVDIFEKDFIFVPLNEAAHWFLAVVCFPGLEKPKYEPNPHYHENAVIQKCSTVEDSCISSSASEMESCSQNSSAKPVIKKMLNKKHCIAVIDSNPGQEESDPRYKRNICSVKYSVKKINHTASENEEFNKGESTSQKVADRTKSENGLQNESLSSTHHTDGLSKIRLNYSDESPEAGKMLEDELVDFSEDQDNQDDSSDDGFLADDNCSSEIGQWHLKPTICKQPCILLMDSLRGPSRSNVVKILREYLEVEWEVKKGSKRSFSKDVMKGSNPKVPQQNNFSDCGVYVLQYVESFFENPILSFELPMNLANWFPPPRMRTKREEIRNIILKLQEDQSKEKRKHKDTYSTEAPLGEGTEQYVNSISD

[3] = molecular target: T3, Sentrin-specific protease 8 (Homo sapiens, UniProt Q96LD8);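 also: luminescence read-out of SENP8 inhibition, dose-response confirmation following an ultra-high-throughput screen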
T3 sequence (Q96LD8 whole entry): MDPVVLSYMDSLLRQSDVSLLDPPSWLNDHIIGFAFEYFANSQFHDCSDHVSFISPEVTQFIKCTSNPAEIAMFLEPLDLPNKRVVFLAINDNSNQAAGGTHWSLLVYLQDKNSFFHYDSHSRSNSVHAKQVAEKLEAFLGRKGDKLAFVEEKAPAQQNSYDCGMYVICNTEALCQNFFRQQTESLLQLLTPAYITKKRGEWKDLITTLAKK

[4] = molecular target: T4, Caspase-3 (Homo sapiens, UniProt P42574);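 also: Dose-response selectivity test against caspase-3 for candidate inhibitors of sentrin-specific proteases (SENPs)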
T4 sequence (P42574 whole entry): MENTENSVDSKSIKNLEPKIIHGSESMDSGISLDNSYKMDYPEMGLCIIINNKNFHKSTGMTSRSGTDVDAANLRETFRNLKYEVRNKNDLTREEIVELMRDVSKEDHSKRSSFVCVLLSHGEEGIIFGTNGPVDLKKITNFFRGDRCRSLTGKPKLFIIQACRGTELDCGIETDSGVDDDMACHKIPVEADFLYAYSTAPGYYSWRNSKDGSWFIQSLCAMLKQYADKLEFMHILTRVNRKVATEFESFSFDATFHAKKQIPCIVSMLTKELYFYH

[5] = molecular target: T3, Sentrin-specific protease 8; test: SENP8 protease inhibitors, SAR follow-up, biochemical, luminescence (AID 504501)
[6] = molecular target: Vascular endothelial growth factor receptor 1 (Homo sapiens, UniProt P17948);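 also: measured within a kinome-wide profiling panel, FLT1 as the panel member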
Sequence of Vascular endothelial growth factor receptor 1 (P17948 whole entry): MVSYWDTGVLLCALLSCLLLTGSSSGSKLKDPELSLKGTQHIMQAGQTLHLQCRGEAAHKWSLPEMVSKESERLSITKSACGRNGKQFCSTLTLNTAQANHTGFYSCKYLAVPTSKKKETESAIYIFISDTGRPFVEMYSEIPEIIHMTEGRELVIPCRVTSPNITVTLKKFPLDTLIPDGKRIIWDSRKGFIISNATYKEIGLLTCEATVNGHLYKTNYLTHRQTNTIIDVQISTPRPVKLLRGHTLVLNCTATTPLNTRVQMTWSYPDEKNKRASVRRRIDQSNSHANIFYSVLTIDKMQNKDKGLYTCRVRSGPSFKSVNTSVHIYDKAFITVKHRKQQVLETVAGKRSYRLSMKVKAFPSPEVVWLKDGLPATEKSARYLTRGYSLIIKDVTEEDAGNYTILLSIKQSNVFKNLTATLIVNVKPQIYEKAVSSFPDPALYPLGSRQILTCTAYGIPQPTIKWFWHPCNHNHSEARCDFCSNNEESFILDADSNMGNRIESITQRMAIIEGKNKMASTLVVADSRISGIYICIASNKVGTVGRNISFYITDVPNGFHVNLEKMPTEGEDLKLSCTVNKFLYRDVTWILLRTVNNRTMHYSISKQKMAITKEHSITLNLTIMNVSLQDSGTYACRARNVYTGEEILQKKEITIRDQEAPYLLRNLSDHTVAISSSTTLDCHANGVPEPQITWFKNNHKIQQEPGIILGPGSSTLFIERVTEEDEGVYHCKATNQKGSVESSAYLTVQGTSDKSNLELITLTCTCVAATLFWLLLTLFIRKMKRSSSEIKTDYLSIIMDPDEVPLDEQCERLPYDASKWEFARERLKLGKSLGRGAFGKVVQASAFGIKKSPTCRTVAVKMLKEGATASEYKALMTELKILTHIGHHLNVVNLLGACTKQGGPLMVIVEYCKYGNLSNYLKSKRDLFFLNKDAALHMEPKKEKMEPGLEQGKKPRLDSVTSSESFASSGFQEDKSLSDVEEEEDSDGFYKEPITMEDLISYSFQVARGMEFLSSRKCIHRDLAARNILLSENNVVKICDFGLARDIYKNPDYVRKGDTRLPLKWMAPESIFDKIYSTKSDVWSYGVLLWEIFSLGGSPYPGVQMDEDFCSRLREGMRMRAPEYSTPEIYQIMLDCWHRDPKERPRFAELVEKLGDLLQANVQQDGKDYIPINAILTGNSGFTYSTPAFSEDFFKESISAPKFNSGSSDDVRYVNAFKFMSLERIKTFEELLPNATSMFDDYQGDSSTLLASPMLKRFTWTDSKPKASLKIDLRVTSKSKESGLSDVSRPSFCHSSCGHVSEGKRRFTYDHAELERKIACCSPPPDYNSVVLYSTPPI

[7] = molecular target: Mitogen-activated protein kinase kinase kinase kinase 4 (Homo sapiens, UniProt O95819)
Sequence of Mitogen-activated protein kinase kinase kinase kinase 4 (O95819 whole entry): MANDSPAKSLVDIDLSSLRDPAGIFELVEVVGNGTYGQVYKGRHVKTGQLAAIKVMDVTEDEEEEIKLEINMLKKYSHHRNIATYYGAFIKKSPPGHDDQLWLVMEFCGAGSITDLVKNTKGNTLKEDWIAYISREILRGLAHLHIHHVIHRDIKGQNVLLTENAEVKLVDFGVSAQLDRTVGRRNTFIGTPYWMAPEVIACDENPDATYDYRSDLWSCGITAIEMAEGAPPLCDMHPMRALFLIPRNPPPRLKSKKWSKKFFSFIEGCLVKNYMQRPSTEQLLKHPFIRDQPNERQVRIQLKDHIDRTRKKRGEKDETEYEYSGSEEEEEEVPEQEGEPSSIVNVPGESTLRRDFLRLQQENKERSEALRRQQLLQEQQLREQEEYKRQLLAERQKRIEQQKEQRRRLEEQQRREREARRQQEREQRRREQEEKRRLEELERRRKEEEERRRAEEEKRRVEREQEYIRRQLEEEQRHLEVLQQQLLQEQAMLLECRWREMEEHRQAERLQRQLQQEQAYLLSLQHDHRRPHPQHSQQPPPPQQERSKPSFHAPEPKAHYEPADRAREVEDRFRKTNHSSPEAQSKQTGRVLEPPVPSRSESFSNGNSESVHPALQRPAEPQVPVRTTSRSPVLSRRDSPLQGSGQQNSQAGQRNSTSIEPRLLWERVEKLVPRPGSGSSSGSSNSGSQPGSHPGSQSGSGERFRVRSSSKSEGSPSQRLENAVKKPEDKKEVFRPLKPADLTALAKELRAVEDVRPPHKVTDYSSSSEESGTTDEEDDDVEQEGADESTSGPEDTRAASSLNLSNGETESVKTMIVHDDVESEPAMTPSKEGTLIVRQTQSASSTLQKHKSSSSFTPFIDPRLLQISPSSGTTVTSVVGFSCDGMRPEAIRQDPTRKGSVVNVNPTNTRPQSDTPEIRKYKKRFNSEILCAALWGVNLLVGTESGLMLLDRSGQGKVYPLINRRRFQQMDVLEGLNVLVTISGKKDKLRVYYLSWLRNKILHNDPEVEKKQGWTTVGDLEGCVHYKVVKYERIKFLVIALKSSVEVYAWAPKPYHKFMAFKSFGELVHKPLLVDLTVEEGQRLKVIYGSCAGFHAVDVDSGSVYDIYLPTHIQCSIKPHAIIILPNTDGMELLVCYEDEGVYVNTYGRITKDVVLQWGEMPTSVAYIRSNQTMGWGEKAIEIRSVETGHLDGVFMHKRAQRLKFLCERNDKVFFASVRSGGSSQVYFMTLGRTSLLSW

[8] = molecular target: 5'-AMP-activated protein kinase catalytic subunit alpha-1 (Homo sapiens, UniProt Q13131)
Sequence of 5'-AMP-activated protein kinase catalytic subunit alpha-1 (Q13131 whole entry): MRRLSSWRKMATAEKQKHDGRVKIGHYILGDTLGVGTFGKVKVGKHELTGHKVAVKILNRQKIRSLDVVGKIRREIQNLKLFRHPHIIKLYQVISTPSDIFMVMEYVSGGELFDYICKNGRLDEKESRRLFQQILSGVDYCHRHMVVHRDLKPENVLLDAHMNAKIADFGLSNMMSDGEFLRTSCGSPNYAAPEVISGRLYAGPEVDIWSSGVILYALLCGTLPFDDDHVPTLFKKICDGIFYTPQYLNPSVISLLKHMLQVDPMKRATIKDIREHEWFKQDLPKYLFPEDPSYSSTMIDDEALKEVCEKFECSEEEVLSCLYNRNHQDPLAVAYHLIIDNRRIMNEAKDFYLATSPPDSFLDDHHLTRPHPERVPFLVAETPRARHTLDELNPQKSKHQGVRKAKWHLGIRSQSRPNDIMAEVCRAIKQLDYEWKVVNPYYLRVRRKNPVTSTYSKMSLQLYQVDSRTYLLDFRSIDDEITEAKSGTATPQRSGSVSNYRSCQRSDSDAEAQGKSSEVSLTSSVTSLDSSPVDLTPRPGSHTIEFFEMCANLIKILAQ

[9] = molecular target: Mitogen-activated protein kinase kinase kinase kinase 2 (Homo sapiens, UniProt Q12851);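 also: measured as one member of a kinome-wide kinase panel, with MAP4K2 as the panel entry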
Sequence of Mitogen-activated protein kinase kinase kinase kinase 2 (Q12851 whole entry): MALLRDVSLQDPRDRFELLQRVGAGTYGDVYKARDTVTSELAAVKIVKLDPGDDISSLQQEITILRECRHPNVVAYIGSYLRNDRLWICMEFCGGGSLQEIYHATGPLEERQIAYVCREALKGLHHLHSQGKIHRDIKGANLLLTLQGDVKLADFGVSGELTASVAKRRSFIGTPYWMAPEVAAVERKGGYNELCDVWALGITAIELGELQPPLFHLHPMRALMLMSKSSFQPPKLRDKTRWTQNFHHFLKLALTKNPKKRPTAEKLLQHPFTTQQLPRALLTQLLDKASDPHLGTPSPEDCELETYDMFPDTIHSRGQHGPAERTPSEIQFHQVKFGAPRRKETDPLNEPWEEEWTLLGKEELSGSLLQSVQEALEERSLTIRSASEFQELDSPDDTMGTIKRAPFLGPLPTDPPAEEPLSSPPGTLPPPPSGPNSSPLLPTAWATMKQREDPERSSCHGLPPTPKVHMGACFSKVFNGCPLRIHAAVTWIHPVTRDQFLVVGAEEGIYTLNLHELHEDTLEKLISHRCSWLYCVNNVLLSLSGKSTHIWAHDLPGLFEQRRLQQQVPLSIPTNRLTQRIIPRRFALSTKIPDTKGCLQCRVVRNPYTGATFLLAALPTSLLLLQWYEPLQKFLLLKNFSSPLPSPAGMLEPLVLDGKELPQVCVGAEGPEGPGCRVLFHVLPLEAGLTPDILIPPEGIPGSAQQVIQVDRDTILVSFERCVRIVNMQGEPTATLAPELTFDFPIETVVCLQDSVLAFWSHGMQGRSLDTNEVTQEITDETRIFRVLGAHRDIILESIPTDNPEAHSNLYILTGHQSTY

[10] = molecular target: Protein kinase C gamma type (Homo sapiens, UniProt P05129)

| SMILES | IC50 [1] | IC50 [2] | IC50 [3] | IC50 [4] | IC50 [5] | Ki [6] | Ki [7] | Ki [8] | Ki [9] | Ki [10] |
| --- | --- | --- | --- | --- | --- | --- | --- | --- | --- | --- |
| O=C(COC(=O)c1ccc([N+](=O)[O-])s1)Nc1cccc(S(=O)(=O)/N=C2/CCCCCN2)c1 | 7.08 µM (active) | 4.62 µM (active) | 4.92 µM (active) | 10 µM (active) | – | – | – | – | – | – |
| COc1ccc(C(C[N+](=O)[O-])c2c(C)[nH]n(-c3ccccc3)c2=O)cc1 (centres undefined) | 7.15 µM (active) | 7.1 µM (active) | 8.32 µM (active) | > 100 µM (inactive) | 28.1 µM (active) | – | – | – | – | – |
| Oc1c2ccccc2c2c3c(cccc13)N=N2 [SP-600125] | – | – | – | – | – | 200 nM (active) | 316 nM (active) | > 1.58 µM (inactive) | 50.1 nM (active) | 316 nM (active) |
